For 17 compounds, Ki results are on record in patent publication US8278306B2 (Vertex Pharmaceuticals Incorporated, priority 2006, dated 2012).

The target in one assay is T1, CYP1A2 (Homo sapiens, UniProt P05177).
T1 sequence (P05177 1-516): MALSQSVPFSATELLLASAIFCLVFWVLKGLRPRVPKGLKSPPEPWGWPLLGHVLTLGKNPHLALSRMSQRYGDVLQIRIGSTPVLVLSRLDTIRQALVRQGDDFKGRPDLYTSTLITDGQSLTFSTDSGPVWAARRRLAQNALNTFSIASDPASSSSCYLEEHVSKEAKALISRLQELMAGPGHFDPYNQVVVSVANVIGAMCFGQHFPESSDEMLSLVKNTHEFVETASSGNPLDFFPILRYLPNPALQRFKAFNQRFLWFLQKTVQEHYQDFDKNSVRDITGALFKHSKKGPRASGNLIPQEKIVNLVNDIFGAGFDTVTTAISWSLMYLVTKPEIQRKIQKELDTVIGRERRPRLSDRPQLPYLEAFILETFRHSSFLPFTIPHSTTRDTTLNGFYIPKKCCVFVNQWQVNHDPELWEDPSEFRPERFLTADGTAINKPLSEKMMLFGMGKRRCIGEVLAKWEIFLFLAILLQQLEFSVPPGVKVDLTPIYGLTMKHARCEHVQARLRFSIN
Put plainly: Cytochrome P450 isozyme inhibition, fluorescent Vivid substrate. It is filed as in vitro ADME. The following applies: 5 nM CYP1A2, 2 μM Vivid 1A2 Blue, 60 minutes. How it is done: (§1) Selected compounds of the invention were assayed for their ability to inhibit various cytochrome P450 isozymes, such as, for example CYP2D6, CYP2C9, CYP1A2, CYP2C19, CYP3A4, CYP2C9, and CYP3A4 (human liver microsome). Such assays are described by Crespi et al., Anal. Biochem. 248:188-90, 1997; Ekins et al., J. Pharmacol. Exp. Ther. 290, 429-38, 1999; and Ekins et al., J. Pharmacol. Exp. Ther. 291, 424-33, 1999. In a typical isozyme inhibition experiment, test compounds are placed into a microwell on a microtiter plate as an 8 nL solution (2 mM in 75% DMSO/water). The plate is centrifuged for 2 minutes at approximately 1000 rpm to shift the compound to the bottom of the well. Polyvinylpyrrolidone (PVP/10K, 100 nL, 0.2% in 75% DMSO/water) is added to the well and this excipient also centrifuged for 2 minutes at approximately 1000 rpm to ensure mixing with the compound. The plates containing the wells are dried in vacuo. Distilled water (800 nL) is added to the wells containing compound, the background control wells, and the positive control wells, followed by the addition of 200 nL of phosphate buffer (500 mM potassium phosphate butter at pH=8.4). The positive control cells contain a drug such as, for example, miconazole. Insect baculosomes (PanVera P2315) in […] phosphate buffer was added to the background control wells and the plate was scanned for compound fluorescence. […] Therefore, CYP450 isozyme (400 nL) and recycling buffer (3.3 mM glucose-6-phosphate, 0.4 units/mL glucose-6-phosphate dehydrogenase, 100 mM MgCl2, and 0.00025% Antifoam 289) in 100 mM phosphate buffer was added to each well containing compound and background control to obtain the following concentrations: 5 nM CYP3A4, 10 nM CYP2C9, 5 nM CYP1A2, 5 nM CYP2C19, and 20 nM CYP2D6. After incubation for 60 minutes, the wells were read with a fluorescent plate reader.

The target in another assay is CYP2D6 (Homo sapiens, UniProt P10635). The assay is described as above. The class given is in vitro ADME. The following applies: 20 nM CYP2D6, 10 μM Vivid 2D6 Blue, 60 minutes. As to the method: as §1
Chain of CYP2D6 (P10635 whole entry): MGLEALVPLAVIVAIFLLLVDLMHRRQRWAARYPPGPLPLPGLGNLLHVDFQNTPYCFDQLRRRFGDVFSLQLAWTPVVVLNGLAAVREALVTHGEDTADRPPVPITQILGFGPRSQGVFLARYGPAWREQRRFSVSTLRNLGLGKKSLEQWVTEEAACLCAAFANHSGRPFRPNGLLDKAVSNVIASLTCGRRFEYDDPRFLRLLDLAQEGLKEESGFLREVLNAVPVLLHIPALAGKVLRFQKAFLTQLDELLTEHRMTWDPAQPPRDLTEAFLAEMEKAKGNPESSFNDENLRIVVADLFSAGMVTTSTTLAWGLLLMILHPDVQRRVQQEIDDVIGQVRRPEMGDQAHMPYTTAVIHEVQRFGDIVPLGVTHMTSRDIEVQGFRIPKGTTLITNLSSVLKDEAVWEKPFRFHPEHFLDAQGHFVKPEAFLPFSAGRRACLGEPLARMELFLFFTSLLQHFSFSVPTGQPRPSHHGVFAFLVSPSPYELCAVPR
In another assay the target is CYP2C19 (Homo sapiens, UniProt P33261). The description is as above. The following applies: 5 nM CYP2C19, 10 μM Vivid 2C19 Blue, 60 minutes. It is filed as in vitro ADME. How it is done:
as §1

The target of a further assay is CYP2C9 (Homo sapiens, UniProt P11712). Described as above. The class given is in vitro ADME. The following applies: 10 nM CYP2C9, 1 μM Vivid 2C9 Green, 60 minutes. As to the method:
as §1

A further assay addresses CYP3A4 (Homo sapiens, UniProt P08684). The assay is described as above. The class given is in vitro ADME. The following applies: 5 nM CYP3A4, 5 μM Vivid 3A4 Red, 60 minutes. How it is done:
Selected compounds of the invention were assayed for their ability to inhibit various cytochrome P450 isozymes, such as, for example CYP2D6, CYP2C9, CYP1A2, CYP2C19, CYP3A4, CYP2C9, and CYP3A4 (human liver microsome). Such assays are described by Crespi et al., Anal. Biochem. 248:188-90, 1997; Ekins et al., J. Pharmacol. Exp. Ther. 290, 429-38, 1999; and Ekins et al., J. Pharmacol. Exp. Ther. 291, 424-33, 1999. […] The plate is centrifuged for 2 minutes at approximately 1000 rpm to shift the compound to the bottom of the well. […] Distilled water (800 nL) is added to the wells containing compound, the background control wells, and the positive control wells, followed by the addition of 200 nL of phosphate buffer (500 mM potassium phosphate butter at pH=8.4). The positive control cells contain a drug such as, for example, miconazole. Insect baculosomes (PanVera […]) in […] phosphate buffer was added to the background control wells and the plate was scanned for compound fluorescence. […] After incubation for 60 minutes, the wells were read with a fluorescent plate reader.

In the next assay the target is T2, ROCK I (AA 6-553) (Homo sapiens, UniProt Q13464).
T2 construct: ROCK I (AA 6-553)
T2 sequence (Q13464 6-553, species assumed): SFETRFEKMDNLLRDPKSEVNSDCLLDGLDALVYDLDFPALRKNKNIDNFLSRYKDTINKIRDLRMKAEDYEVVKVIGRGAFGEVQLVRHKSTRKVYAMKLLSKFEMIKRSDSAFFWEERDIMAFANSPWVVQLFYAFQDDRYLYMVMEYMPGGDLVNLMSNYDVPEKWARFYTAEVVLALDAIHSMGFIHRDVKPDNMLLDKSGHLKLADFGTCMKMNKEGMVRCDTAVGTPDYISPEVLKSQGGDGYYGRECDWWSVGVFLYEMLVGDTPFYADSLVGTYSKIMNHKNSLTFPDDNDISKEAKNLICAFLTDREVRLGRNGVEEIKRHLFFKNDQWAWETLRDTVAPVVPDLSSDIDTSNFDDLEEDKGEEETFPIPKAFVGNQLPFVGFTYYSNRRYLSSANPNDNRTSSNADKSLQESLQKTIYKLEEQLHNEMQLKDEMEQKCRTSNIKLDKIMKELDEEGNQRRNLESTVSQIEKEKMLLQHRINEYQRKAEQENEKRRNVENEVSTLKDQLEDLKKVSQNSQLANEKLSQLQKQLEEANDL
Put plainly: ROCK inhibition assay, standard coupled enzyme system. It is filed as biochemical. The following applies: 45 nM ROCK I, 45 μM ATP, 200 μM peptide, 30° C. How it is done:
Reactions were carried out in a solution containing 100 mM HEPES (pH 7.5), 10 mM MgCl2, 25 mM NaCl, 2 mM DTT and 1.5% DMSO.

For assay [1], the target named is T3, CYP3A4 (human liver microsome) (Homo sapiens, UniProt P08684).
T3 construct: CYP3A4 (human liver microsome); from tissue; host or cells: human liver microsomes
T3 sequence (P08684 whole entry): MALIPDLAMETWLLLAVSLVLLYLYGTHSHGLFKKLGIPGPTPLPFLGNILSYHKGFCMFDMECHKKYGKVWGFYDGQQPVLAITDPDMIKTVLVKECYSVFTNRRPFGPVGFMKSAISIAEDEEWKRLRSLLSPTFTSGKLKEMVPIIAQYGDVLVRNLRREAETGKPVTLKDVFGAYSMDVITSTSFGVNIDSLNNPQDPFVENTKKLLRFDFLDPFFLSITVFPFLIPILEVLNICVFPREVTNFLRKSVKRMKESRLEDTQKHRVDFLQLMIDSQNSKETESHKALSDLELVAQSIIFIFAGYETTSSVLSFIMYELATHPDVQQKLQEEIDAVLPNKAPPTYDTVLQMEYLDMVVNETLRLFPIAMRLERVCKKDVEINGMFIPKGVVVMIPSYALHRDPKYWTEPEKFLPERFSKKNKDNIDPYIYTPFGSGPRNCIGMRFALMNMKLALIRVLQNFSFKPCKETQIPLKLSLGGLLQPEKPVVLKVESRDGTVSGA
Put plainly: Cytochrome P450 inhibition, human liver microsome. It is filed as in vitro ADME. The following applies: read-out: CYP3A4 (HLM) Ki. As to the method:
Selected compounds of the invention were assayed for their ability to inhibit various cytochrome P450 isozymes, such as, for example CYP2D6, CYP2C9, CYP1A2, CYP2C19, CYP3A4, CYP2C9, and CYP3A4 (human liver microsome). Such assays are described by Crespi et al., Anal. Biochem. 248:188-90, 1997; Ekins et al., J. Pharmacol. Exp. Ther. 290, 429-38, 1999; and Ekins et al., J. Pharmacol. Exp. Ther. 291, 424-33, 1999. […] The plate is centrifuged for 2 minutes at approximately 1000 rpm to shift the compound to the bottom of the well. […] Distilled water (800 nL) is added to the wells containing compound, the background control wells, and the positive control wells, followed by the addition of 200 nL of phosphate buffer (500 mM potassium phosphate butter at pH=8.4). The positive control cells contain a drug such as, for example, miconazole. […] After incubation for 60 minutes, the wells were read with a fluorescent plate reader.
(In general: Microsomes from liver hold many membrane-bound enzymes, among them those of drug oxidation.)

Molecules are shown by their SMILES.

Chain of CYP3A4 (P08684 whole entry): as above
Chain of CYP2C19 (P33261 whole entry): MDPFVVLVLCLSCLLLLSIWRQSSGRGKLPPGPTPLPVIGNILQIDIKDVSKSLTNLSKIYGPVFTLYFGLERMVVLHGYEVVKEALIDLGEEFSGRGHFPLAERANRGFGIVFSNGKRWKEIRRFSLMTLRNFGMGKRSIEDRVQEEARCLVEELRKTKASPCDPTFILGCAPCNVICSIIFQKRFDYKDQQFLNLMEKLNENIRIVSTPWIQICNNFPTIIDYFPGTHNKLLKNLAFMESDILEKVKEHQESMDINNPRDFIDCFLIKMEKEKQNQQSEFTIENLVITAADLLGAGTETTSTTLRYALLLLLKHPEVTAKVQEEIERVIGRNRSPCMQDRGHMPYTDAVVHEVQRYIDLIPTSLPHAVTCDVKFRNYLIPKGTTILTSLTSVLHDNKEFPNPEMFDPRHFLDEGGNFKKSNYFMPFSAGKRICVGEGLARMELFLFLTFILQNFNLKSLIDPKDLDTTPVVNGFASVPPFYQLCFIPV
Chain of CYP2C9 (P11712 whole entry): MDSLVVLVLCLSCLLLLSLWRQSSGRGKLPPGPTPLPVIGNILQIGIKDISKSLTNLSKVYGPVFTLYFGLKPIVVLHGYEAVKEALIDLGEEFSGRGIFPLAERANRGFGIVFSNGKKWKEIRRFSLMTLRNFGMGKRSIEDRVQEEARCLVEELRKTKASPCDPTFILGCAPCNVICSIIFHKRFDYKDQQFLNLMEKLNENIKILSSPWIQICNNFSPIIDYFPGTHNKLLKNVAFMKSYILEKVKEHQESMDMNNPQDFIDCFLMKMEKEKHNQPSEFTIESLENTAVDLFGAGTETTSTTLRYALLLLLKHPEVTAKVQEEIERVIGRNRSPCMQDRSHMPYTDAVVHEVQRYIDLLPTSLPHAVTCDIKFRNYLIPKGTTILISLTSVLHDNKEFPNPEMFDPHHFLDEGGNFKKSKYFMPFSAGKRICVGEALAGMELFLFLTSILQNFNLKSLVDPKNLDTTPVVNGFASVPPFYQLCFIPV

For `COc1cccc(CC(=O)Nc2cc(-c3ccnc(F)c3)cs2)c1` [Compound 61], the inhibition constant Ki on CYP1A2 was greater than 10 µM; at CYP2D6, greater than 10 µM; on CYP2C19, 1 to 10 µM; at CYP2C9 it was 1 to 10 µM.

Take `COc1cccc(CC(=O)Nc2cc(-c3ccnc(Cl)c3)cs2)c1` [Compound 62]: the Ki was greater than 10 µM at CYP1A2 and 1 to 10 µM at CYP2C9.

Consider `COc1cccc(CC(=O)Nc2cc(-c3ccnc(N)c3)cs2)c1` [Compound 64, N-(4-(2-aminopyridin-4-yl)thiophen-2-yl)-2-(3-methoxyphenyl)acetamide], for which the Ki on CYP1A2 was 1 to 10 µM; at CYP2D6, 1 to 10 µM; on CYP2C19, greater than 10 µM; on CYP2C9, 1 to 10 µM.

As for `O=C(Cc1cccc(OCCCC2CCNCC2)c1)Nc1cc(-c2ccnc(F)c2)cs1` [Compound 72], the inhibition constant (Ki) on CYP3A4 was 1 to 10 µM; at CYP1A2 it was greater than 10 µM; at CYP2D6, 1 to 10 µM; on CYP2C19 it was 1 to 10 µM; at ROCK I (AA 6-553) it was less than 100 nM; in assay [1], greater than 10 µM.

In the case of `CN1CCN(CCOc2cccc(CC(=O)Nc3cc(-c4ccnc(F)c4)cs3)c2)CC1` [Compound 73], the Ki at CYP3A4 is greater than 10 µM; on CYP1A2, greater than 10 µM; on CYP2D6, greater than 10 µM; on CYP2C9 it was greater than 10 µM; on ROCK I (AA 6-553), less than 100 nM; in assay [1], greater than 10 µM.

Take `CN1CCN(CCCOc2cccc(CC(=O)Nc3cc(-c4ccnc(F)c4)cs3)c2)CC1` [Compound 74]: the Ki at CYP3A4 is greater than 10 µM; at CYP1A2, greater than 10 µM; on CYP2D6, greater than 10 µM; at CYP2C19, greater than 10 µM; on CYP2C9, greater than 10 µM; on ROCK I (AA 6-553), less than 100 nM. Also, the Ki in assay [1] is greater than 10 µM.

`Nc1cc(-c2csc(NC(=O)Cc3cccc(OCCCC4CCNCC4)c3)c2)ccn1` [Compound 77]: the Ki was 1 to 10 µM on CYP3A4; greater than 10 µM on CYP1A2; less than 1 µM at CYP2D6; 1 to 10 µM at CYP2C19; 1 to 10 µM at CYP2C9; less than 100 nM at ROCK I (AA 6-553). For the same compound, the Ki in assay [1] was 1 to 10 µM.

`COc1cccc(CC(=O)Nc2cc(-c3ccnc(C)c3)cs2)c1` [Compound 80]: the inhibition constant (Ki) is 1 to 10 µM on CYP3A4; greater than 10 µM at CYP1A2; greater than 10 µM at CYP2D6; 1 to 10 µM on CYP2C19; 1 to 10 µM at CYP2C9; 100 to 1000 nM at ROCK I (AA 6-553). In addition, in assay [1], the Ki fell in the range of 1 to 10 µM.

As for `Cc1cc(-c2csc(NC(=O)Cc3cccc(O)c3)c2)ccn1` [Compound 85], the Ki is greater than 10 µM on CYP3A4; greater than 10 µM on CYP1A2; greater than 10 µM at CYP2D6; 1 to 10 µM at CYP2C19; greater than 10 µM on CYP2C9; less than 100 nM at ROCK I (AA 6-553). Also, the inhibition constant Ki in assay [1] was greater than 10 µM.

In the case of `Cc1cc(-c2csc(NC(=O)Cc3cccc(OCCCN4CCNCC4)c3)c2)ccn1` [Compound 89], the inhibition constant (Ki) at CYP3A4 is greater than 10 µM; at CYP1A2, greater than 10 µM; on CYP2C19 it was 1 to 10 µM; at CYP2C9, greater than 10 µM; at ROCK I (AA 6-553), less than 100 nM; in assay [1], greater than 10 µM.

Regarding `Cc1cc(-c2csc(NC(=O)Cc3cccc(OCCCN4CCN(C)CC4)c3)c2)ccn1` [Compound 90], the Ki on CYP3A4 was greater than 10 µM; on CYP1A2, greater than 10 µM; at CYP2C9 it was greater than 10 µM; on ROCK I (AA 6-553), 100 to 1000 nM; in assay [1], greater than 10 µM.

With `Cc1cc(-c2csc(NC(=O)Cc3cccc(OCCN4CCNCC4)c3)c2)ccn1` [Compound 92], the Ki on CYP3A4 was greater than 10 µM; on CYP1A2, greater than 10 µM; at CYP2C19, greater than 10 µM; at CYP2C9 it was greater than 10 µM; on ROCK I (AA 6-553) it was 100 to 1000 nM; in assay [1] it was greater than 10 µM.

With `Cc1cc(-c2csc(NC(=O)Cc3cccc(OCCN4CCN(C)CC4)c3)c2)ccn1` [Compound 93], the inhibition constant (Ki) was greater than 10 µM on CYP3A4; greater than 10 µM on CYP1A2; greater than 10 µM at CYP2C19; greater than 10 µM on CYP2C9; 100 to 1000 nM at ROCK I (AA 6-553); greater than 10 µM in assay [1].

Turning to `Cc1cc(-c2csc(NC(=O)Cc3cccc(OCCN4CCCCC4)c3)c2)ccn1` [Compound 94], the inhibition constant (Ki) was greater than 10 µM at CYP3A4; greater than 10 µM on CYP1A2; greater than 10 µM at CYP2C19; greater than 10 µM at CYP2C9; greater than 1000 nM on ROCK I (AA 6-553); greater than 10 µM in assay [1].

On to `O=C(Cc1cccc(O)c1)Nc1cc(-c2ccnc(Cl)c2)cs1` [Compound 101], for which the Ki at CYP3A4 was 1 to 10 µM; at CYP1A2 it was 1 to 10 µM; at CYP2C19, 1 to 10 µM; on CYP2C9, 1 to 10 µM; on ROCK I (AA 6-553), less than 100 nM; in assay [1] it was 1 to 10 µM.

As to `O=C(Cc1cccc(OCCCN2CCNCC2)c1)Nc1cc(-c2ccnc(Cl)c2)cs1` [Compound 102], the Ki at CYP3A4 is 1 to 10 µM; at CYP1A2, greater than 10 µM; on CYP2D6, greater than 10 µM; on CYP2C19, 1 to 10 µM; on CYP2C9, greater than 10 µM; at ROCK I (AA 6-553), less than 100 nM. Also, the Ki in assay [1] was greater than 10 µM.

Turning to `CN1CCN(CCCOc2cccc(CC(=O)Nc3cc(-c4ccnc(Cl)c4)cs3)c2)CC1` [Compound 103], the inhibitory constant (Ki) at CYP3A4 is greater than 10 µM; on CYP1A2, greater than 10 µM; on CYP2D6, greater than 10 µM; at CYP2C19, greater than 10 µM; on CYP2C9 it was greater than 10 µM; on ROCK I (AA 6-553), less than 100 nM. Besides, the Ki in assay [1] is greater than 10 µM.

A word on the Ki: it is the equilibrium dissociation constant of an inhibitor or competing ligand from its target.
